The source made the active and inactive calls.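 How the source made its calls: active means IC50 under 10 µM in the follow-up dose response; inactive means IC50 10 µM or more, or under 40% single-dose inhibition.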
target: Tyrosine-protein phosphatase non-receptor type 22 (Homo sapiens) (UniProt Q9Y2R2); test: LYP phosphatase inhibitors, confirmation, biochemical, DiFMUP fluorescence, retest and dose response (AID 1253); conditions: recombinant LYP, at 10 µM
Sequence (Q9Y2R2 whole entry, looked up): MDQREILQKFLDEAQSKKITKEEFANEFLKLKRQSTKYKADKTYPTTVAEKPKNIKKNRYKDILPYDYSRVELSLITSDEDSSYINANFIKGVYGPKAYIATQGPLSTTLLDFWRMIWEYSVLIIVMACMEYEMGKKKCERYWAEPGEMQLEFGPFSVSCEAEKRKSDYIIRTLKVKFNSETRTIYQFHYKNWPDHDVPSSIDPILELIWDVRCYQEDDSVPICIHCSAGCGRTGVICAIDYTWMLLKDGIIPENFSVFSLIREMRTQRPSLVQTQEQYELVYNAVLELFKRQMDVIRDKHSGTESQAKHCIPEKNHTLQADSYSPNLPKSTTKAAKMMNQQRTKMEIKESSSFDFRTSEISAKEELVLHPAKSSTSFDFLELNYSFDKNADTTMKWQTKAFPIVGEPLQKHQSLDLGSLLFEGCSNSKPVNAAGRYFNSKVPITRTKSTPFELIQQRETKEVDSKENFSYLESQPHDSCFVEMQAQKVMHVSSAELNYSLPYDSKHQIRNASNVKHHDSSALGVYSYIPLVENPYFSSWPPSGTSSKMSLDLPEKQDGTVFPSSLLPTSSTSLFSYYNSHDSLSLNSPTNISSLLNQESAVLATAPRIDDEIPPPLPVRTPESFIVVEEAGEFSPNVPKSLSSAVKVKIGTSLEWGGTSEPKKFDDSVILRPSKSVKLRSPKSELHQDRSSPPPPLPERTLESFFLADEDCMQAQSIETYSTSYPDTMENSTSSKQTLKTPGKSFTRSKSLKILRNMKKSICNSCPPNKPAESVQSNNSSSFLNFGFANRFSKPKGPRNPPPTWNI

| Compound | inhibition |
| --- | --- |
| CC(OC(=O)c1ccco1)C(=O)NC1CCCCC1 (stereo not given) | inactive |
| CCN(CC(=O)NC(=O)NC1CCCCC1)Cc1nc2ccccc2c(=O)[nH]1 | inactive |
| COc1ccc(CN2CCN(C(=O)c3ccco3)CC2)cc1 | inactive |
| O=C1NC(=O)C(=Cc2cn(CCOc3ccc4c(c3)OCO4)c3ccccc23)C(=O)N1 | inactive |
| O=C(COc1ccccc1C(=O)N/N=C\c1ccc(O)c(O)c1)N/N=C/c1ccc(O)c(O)c1 | inactive |
| CCCCCCc1cc2cc(-c3nnc(-c4ccccc4OC)o3)c(=O)oc2cc1O | inactive |
| CCOc1ccc(-c2csc(N)c2C(=O)OC)cc1 | inactive |
| CCOC(=O)CC(=O)CSc1nc2c(C)c(C)ccc2cc1C | inactive |
| CN(C)/C=C/C(=O)c1ccc(F)cc1 | inactive |
| O=C(Nc1ccc2oc(-c3ccc4ccccc4c3)nc2c1)c1ccc2c(c1)OCCO2 | inactive |
| COc1ccccc1OCc1nnc(SCC(=O)NCc2ccco2)n1Cc1ccco1 | inactive |
| CN1CCn2c1nc(N1CCOCC1)nc2=O | inactive |
| Cc1ccccc1Cn1ccc(NC(=O)CCSc2nc(-c3ccco3)cc(C(F)(F)F)n2)n1 | inactive |
| COc1cnc(-c2ccccn2)nc1Sc1ccc(Cl)cc1 | inactive |
| O=C(CSc1nnc(-c2ccc(Cl)s2)o1)N1CCCc2ccccc21 | inactive |
| CCCCCCCCC/C(=N\O)c1ccccn1 | inactive |
| O=[N+]([O-])c1ccc(N2CCN(S(=O)(=O)c3ccc(Cl)cc3)CC2)cc1NCc1cccnc1 | inactive |
| Clc1ccc(C2=Nn3c(nnc3-c3cc(-c4ccccc4)n[nH]3)SC2)cc1 | inactive |
| CCOC(=O)c1c2ccc(OCC(=O)N/N=C/c3ccc(C)cc3)cc2n2ccccc12 | inactive |
| C=CCNC(=S)NNC(=O)c1cccn(Cc2ccc(Cl)cc2)c1=O | inactive |
| Clc1ccc(C2=C3CCCCn4c(-c5ccccc5)c[n+](c43)C2)cc1 | inactive |
| Cc1ccc(C(=O)n2nc(-c3ccco3)nc2N)cc1 | inactive |
| COc1ccc(C2C(=O)N(C3CCCCC3)CC(=O)N2C2CCCCC2)cc1 (stereo not given) | inactive |
| Brc1ccc2nc(CSc3ncn[nH]3)cn2c1 | inactive |
| CCCC1COC(Cn2cncn2)(c2ccc(Cl)cc2Cl)O1 (stereo not given) | inactive |

| Compound | inhibition |
| --- | --- |
| O=C(Cn1c(-c2ccc(Cl)cc2)noc1=O)N1CCN(c2ccccc2F)CC1 | inactive |
| Cc1nc(NC(=O)CC(C)C)sc1-c1csc(Nc2ccc(Cl)cc2)n1 | inactive |
| Cc1cc(C)n2nc(SCc3cc(=O)oc4cc(O)ccc34)nc2n1 | inactive |
| O=C(Nc1cnc2ccccc2c1)C1COc2ccccc2O1 (stereo not given) | inactive |
| O=C(Cc1cnn(-c2ccccc2)c1)c1ccc(O)c(O)c1O | inactive |
| COc1ccc2c(C)cc(SCC(=O)Nc3c(C)n(C)n(-c4ccccc4)c3=O)nc2c1 | inactive |
| O=C(CN(C(=O)CNC(=O)c1ccco1)c1ccc2c(c1)OCO2)NC1CCCCC1 | inactive |
| O=c1c(-c2nnc(SCc3ccc(Cl)cc3Cl)o2)cccn1Cc1ccccc1 | inactive |
| Nc1c(C(=O)NCc2ccco2)c2nc3ccccc3nc2n1CCc1ccccc1F | inactive |
| COc1ccc(-n2nnnc2SCC(=O)c2ccc(O)c(O)c2)cc1 | inactive |
| Nc1nnc(SCC(=O)Nc2ccc(S(=O)(=O)N3CCOCC3)cc2)s1 | inactive |
| CCOC(=O)c1c(N2C(=O)Nc3cc(Cl)c(Cl)cc3N2O)sc2c1CCCCC2 | inactive |
| Cc1ccc(NC(=O)CN2C(=O)S/C(=C/c3ccc(-c4cc(C(=O)O)ccc4C)o3)C2=O)cc1C | inactive |
| CC(=O)Nc1cccc(NC(=O)CCn2cnc3cc(C)c(C)cc32)c1 | inactive |
| O=C(Nc1ccc(N2CCCCC2)c(Cl)c1)c1ccc2c(c1)OCCO2 | inactive |
| Cc1ccc2nc(NC(=S)NC(=O)c3cccs3)sc2c1 | inactive |
| CCNC(=S)NNC(=O)c1cccn(Cc2ccc(Cl)cc2)c1=O | inactive |
| COc1ccccc1/C=C\C=N\n1c(C2CCCCC2)n[nH]c1=S | inactive |
| N#Cc1ccccc1CN1C(=O)S/C(=C/c2cccn2-c2cccc(C(=O)O)c2)C1=O | inactive |
| N#CC(c1cccc(C(F)(F)F)c1)(c1ncc(C(F)(F)F)cc1Cl)N1CCOCC1 (stereo not given) | inactive |
| COCCCNC(=O)c1cccn2c(=O)c3cc4ccccc4cc3nc12 | inactive |
| Nc1nnnn1/N=C/c1ccccc1C(F)(F)F | inactive |
| C=CCNC(=S)NNC(=O)c1cccn(Cc2cccc(Cl)c2)c1=O | inactive |
| Cc1ccc(-c2nn(CC(=O)NCc3cc(-c4nn(C)c(=O)c5ccccc45)ccc3C)c(=O)c3ccccc23)cc1 | inactive |
| CC1CCc2c(sc(NC(=O)c3ccc(Cn4cc([N+](=O)[O-])cn4)o3)c2C#N)C1 (stereo not given) | inactive |

From PubChem BioAssay AID1253 (Columbia University Molecular Screening Center, 2008)
